The values below come from patent US7405231B2, “Oxidized thioether derivatives” (Hoffmann-La Roche Inc., priority 2004, dated 2008).

The target of one series is T1, HER2 (Homo sapiens, UniProt P04626).
T1 construct: endogenous in cells; host or cells: Calu3 tumor cell line
Put plainly: Inhibition of HER2 phosphorylation in Calu3 tumor cell line. It is filed as cell-based. The conditions noted are these: Calu3 cells; for percentage of inhibition of phosphorylation compared with the reference compound: 1 μM compound, versus Example 4, p. 88, WO 01/77107; for inhibition at 1 µM: Calu-3, read-out: Percent inhibition of HER2-phosphorylation. The protocol:
Inhibition of HER2 phosphorylation in Calu3 tumor cell line.
2×10^5 Calu3 cells per well were plated in a 12-well plate. After 4 days cells were starved for 16 h in DMEM(Dulbecco's Modified Eagle Medium)/0.5% FCS/1% Glutamine. During this time cells were incubated with 1 μM of a compound according to the present invention. Afterwards cells were lysed in lyses buffer containing 1% Triton, 10% Glycerol, 1 mM EGTA, 1.5 mM MgCl2, 150 mM NaCl, 50 mM Hepes pH 7.5, 1 mM PMSF, 10 μg/mL Aprotinin and […] Orthovanadate. Cell lysates were analyzed on a SDS PAGE and after transfer to a nitrocellulose membrane detected with a rabbit antibody specifically recognizing the pY 1248 in HER2 (Cell Signaling). After incubation with an anti rabbit antibody coupled to POD (Biorad) (Peroxidase available from Biorad, Munich, Germany) signals were detected by chemiluminescence (ECL,Amersham). Inhibition of HER2 phosphorylation is calculated as percentage of the DMSO treated control. This percentage is calculated according to the following formula: Inhibition in %=100-(Phosphorylated-HER2-Signal of Test Sample* 100/Phosphorylated-HER2-Signal DMSO-control).

The mark [1] stands for this setting: compound concentration 1 μM, 16 h, pY 1248 in HER2, percentage of the DMSO treated control.

T1 sequence (P04626 23-1255): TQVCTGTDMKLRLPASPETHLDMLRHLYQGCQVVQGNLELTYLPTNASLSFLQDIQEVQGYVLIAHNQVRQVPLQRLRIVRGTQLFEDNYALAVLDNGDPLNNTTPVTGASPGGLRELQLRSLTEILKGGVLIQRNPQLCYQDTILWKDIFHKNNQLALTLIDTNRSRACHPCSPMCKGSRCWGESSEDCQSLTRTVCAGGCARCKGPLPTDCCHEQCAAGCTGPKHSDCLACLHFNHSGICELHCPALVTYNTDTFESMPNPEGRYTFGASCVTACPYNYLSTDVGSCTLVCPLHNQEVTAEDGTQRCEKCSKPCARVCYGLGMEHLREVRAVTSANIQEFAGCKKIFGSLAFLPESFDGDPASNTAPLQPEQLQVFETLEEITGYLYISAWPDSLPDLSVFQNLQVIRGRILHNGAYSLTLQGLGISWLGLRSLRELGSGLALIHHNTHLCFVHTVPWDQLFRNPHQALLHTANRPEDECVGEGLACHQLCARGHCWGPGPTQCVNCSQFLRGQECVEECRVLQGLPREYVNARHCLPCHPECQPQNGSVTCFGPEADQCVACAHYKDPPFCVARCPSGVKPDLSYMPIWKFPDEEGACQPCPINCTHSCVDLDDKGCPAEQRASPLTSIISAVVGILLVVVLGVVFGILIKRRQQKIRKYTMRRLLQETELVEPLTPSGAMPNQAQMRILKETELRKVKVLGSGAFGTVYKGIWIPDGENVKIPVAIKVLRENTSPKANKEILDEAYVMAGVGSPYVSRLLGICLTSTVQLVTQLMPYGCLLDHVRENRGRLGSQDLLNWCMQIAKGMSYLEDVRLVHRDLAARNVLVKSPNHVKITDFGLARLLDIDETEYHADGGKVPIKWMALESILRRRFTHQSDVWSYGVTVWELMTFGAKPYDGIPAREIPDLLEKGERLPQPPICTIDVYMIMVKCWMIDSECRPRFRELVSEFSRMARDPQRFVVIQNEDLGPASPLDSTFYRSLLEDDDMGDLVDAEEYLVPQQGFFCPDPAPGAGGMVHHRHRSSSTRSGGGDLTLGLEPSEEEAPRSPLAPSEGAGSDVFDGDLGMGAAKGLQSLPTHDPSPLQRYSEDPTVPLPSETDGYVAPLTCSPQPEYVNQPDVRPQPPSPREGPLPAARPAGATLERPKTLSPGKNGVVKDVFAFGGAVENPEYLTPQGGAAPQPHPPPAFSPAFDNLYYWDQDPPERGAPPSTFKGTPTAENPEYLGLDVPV

For `[O-][S+](c1ccc(/C=C/c2nc(COc3ccc(CCCCn4ccnn4)cc3)co2)cc1)C(F)(F)F` (stereo not shown) [example 4, 1-[4-(4-{2-[(E)-2-(-4-Trifluoromethanesulfinyl-phenyl)-vinyl]-oxazol-4-ylmethoxy}-phenyl)-butyl]-1H-[1,2,3]triazole], the melting point (in general, the temperature of the solid-liquid transition) lay within 122 to 123 °C. The “percentage of inhibition of phosphorylation compared with the reference compound” value on HER2 is “higher percentage of inhibition of phosphorylation”. In addition, the inhibition (usually the percentage by which the read-out fell short of the control) at 1 µM at HER2 (setting [1]) was 94.4%.

As to `[O-][S+](c1ccc(/C=C/c2nc(COc3ccc(CCCCn4ccnn4)cc3)cs2)cc1)C(F)(F)F` (stereo not shown) [example 15, 1-[4-(4-{2-[(E)-2-(4-Trifluoromethanesulfinyl-phenyl)-vinyl]-thiazol-4-ylmethoxy}-phenyl)-butyl]-1H-[1,2,3]triazole], the melting point was 118 to 119 °C. Moreover, the “percentage of inhibition of phosphorylation compared with the reference compound” value on HER2 is “higher percentage of inhibition of phosphorylation”. Moreover, the inhibition at 1 µM on HER2 (setting [1]) worked out at 73.6%.

As to `[O-][S+](c1ccc(C=Cc2nc(COc3ccc(CCCCn4ccnc4)cc3)co2)cc1)C(F)(F)F` (stereo not shown) [example 1, 4-[4-(4-Imidazol-1-yl-butyl)-phenoxymethyl]-2′-[2-(4-trifluoromethanesulfinyl-phenyl)-vinyl]-oxozole], the “percentage of inhibition of phosphorylation compared with the reference compound” value on HER2 is “higher percentage of inhibition of phosphorylation”. Further, the “Percent inhibition of HER2-phosphorylation” value on HER2 (setting [1]) is recorded as 92.5%.

In turn, `Cc1cc(OCc2coc(C=Cc3ccc(S(=O)(=O)C(F)(F)F)cc3)n2)ccc1CCCCn1ccnn1` [Example 20, 1-[4-(2-Methyl-4-{2-[2-(4-trifluoromethanesulfonyl-phenyl)-vinyl]-oxazol-4-ylmethoxy}-phenyl)-butyl]-1H-[1,2,3]triazole] yielded a melting point of 140 to 142 °C.

Regarding `[O-][S+](c1ccc(/C=C/c2nc(COc3ccc(CCCCc4nn[nH]n4)cc3)co2)cc1)C(F)(F)F` (stereo not shown) [example 7, 5-[4-(4-{2-[(E)-2-(-4-Trifluoromethanesulfinyl-phenyl)-vinyl]-oxazol-4-ylmethoxy}-phenyl)-butyl]-2H-tetrazole], on HER2, the “percentage of inhibition of phosphorylation compared with the reference compound” value was “higher percentage of inhibition of phosphorylation”. Further, the inhibition at 1 µM on HER2 (setting [1]) stood at 52.9%.

`O=S(=O)(NCCn1ccnn1)c1ccc(OCc2coc(C=Cc3ccc([S+]([O-])C(F)(F)F)cc3)n2)cc1` (stereo not shown) [Example 13, N-(2-[1,2,3] Triazol-1-yl-ethyl)-4-{2-[2-(4-trifluoromethanesulfinyl-phenyl)-vinyl]-oxazol-4-ylmethoxy}-benzenesulfonamide] registered a melting point of 172 to 174 °C.

Compound `O=S(=O)(c1ccc(/C=C/c2nc(COc3ccc(CCCCn4ccnn4)cc3)co2)cc1)C(F)(F)F` [example 5, 1-[4-(4-{2-[(E)-2-(-4-Trifluoromethanesulfonyl-phenyl)-vinyl]-oxazol-4-ylmethoxy}-phenyl)-butyl]-1H-[1,2,3]triazole] gave a melting point of 133 to 135 °C. Also, the “percentage of inhibition of phosphorylation compared with the reference compound” value on HER2 is “higher percentage of inhibition of phosphorylation”. In addition, the inhibition at 1 µM on HER2 (setting [1]) is 82.9%.

With `[O-][S+](c1ccc(/C=C/c2nc(COc3ccc(CNCCn4ccnn4)cc3)co2)cc1)C(F)(F)F` (stereo not shown) [Example 3, (2-[1,2,3]Triazol-1-yl-ethyl)-(4-{2-[(E)-2-(4-trifluoromethanesulfinyl-phenyl)-vinyl]-oxazol-4-ylmethoxy}-benzyl)-amine], the melting point fell in the range of 111 to 113 °C.
